Measured values taken from patent US12312332B2 (Merck Sharp & Dohme LLC., priority 2019, dated 2025).

Target: T1, human OX2R (Homo sapiens, UniProt O43614)
T1 construct: expressed in transfected cells; host or cells: Chinese hamster ovary (CHO) cells, kept under G418 selection
T1 sequence (O43614 1-444): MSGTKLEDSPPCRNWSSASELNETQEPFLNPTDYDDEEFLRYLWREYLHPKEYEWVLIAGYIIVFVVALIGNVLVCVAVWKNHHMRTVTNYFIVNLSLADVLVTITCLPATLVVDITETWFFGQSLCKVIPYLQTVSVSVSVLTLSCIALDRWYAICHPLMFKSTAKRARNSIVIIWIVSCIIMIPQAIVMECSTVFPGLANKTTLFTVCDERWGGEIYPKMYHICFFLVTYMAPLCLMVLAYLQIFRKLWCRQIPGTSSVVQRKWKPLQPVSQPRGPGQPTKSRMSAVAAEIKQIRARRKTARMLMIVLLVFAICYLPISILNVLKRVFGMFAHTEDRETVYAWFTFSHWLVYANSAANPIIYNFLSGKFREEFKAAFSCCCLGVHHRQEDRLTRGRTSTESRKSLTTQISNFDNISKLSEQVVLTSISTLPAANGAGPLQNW
Assay: IPOne (IP-One) orexin receptor agonist assay in CHO cells expressing human OX2R
Assay type: cell-based
Details: for EC50: CHO cells expressing human OX2R, IP-One detection, 2 hours incubation, four parameter logistic fit, read-out: OX2R Potency, EC50; for % max agonist effect (Emax): human OX2R, percentage of sample raw value/mean max effect (reference compound at 1 uM with 100% activity)

Row | EC50 [nM] | % max agonist effect (Emax) [%] | Compound
1 |  | 101.1 | CS(=O)(=O)N[C@H]1CCN(c2ncccc2O)[C@H]1CO[C@H]1CC[C@@H](c2ccccc2)CC1 [Example 135, N-((2R,3S)-1-(3-hydroxypyridin-2-yl)-2-((((CIS)-4-phenylcyclohexyl)oxy)methyl)pyrrolidin-3-yl)methanesulfonamide]
2 | 59.2 | 100 | Cc1cccnc1N1CC[C@H](NS(C)(=O)=O)[C@@H]1CO[C@H]1CC[C@@H](c2ccccc2)CC1 [Example 125, N-((2R,3S)-1-(3-methylpyridin-2-yl)-2-((((CIS)-4-phenylcyclohexyl)oxy)methyl)pyrrolidin-3-yl)methanesulfonamide]
3 | 7.1 | 100.2 | COc1cccnc1N1CC[C@H](NS(C)(=O)=O)[C@@H]1CO[C@H]1CC[C@@H](c2ccccc2)CC1 [Example 141, N-((2R,3S)-1-(3-methoxypyridin-2-yl)-2-((((CIS)-4-phenylcyclohexyl)oxy)methyl)pyrrolidin-3-yl)methanesulfonamide]
4 | 662 | 97.4 | CN(C)c1ccnc(N2CC[C@H](NS(C)(=O)=O)[C@@H]2CO[C@H]2CC[C@@H](c3ccccc3)CC2)c1 [Example 74, N-((2R,3S)-1-(4-(dimethylamino)pyridin-2-yl)-2-((((CIS)-4-phenylcyclohexyl)oxy)methyl)pyrrolidin-3 - yl)methanesulfonamide]
5 | 393 | 99.6 | Cn1c(N2CC[C@H](NS(C)(=O)=O)[C@@H]2CO[C@H]2CC[C@@H](c3ccccc3)CC2)cccc1=O [Example 116, N-((2R,3S)-1-(1-methyl-6-oxo-1,6-dihydropyridin-2-yl)-2-((((CIS)-4-phenylcyclohexyl)oxy)methyl)pyrrolidin-3-yl)methanesulfonamide]
6 | 2910 | 87.4 | CS(=O)(=O)N[C@H]1CCN(c2ccns2)[C@H]1CO[C@H]1CC[C@@H](c2ccccc2)CC1 [Example 18, N-((2R,3S)-1-(isothiazol-5-yl)-2-((((CIS)-4-phenylcyclohexyl)oxy)methyl)pyrrolidin-3-yl)methanesulfonamide]
7 | 173 | 99.1 | CS(=O)(=O)N[C@H]1CCN(c2ccc(O)cn2)[C@H]1CO[C@H]1CC[C@@H](c2ccccc2)CC1 [Example 68, N-((2R,3S)-1-(5-hydroxypyridin-2-yl)-2-((((CIS)-4-phenylcyclohexyl)oxy)methyl)pyrrolidin-3-yl)methanesulfonamide]
8 | 109 | 100.7 | Cc1scnc1N1CC[C@H](NS(C)(=O)=O)[C@@H]1CO[C@H]1CC[C@@H](c2ccccc2)CC1 [Example 84, N-((2R,3S)-1-(5-methylthiazol-4-yl)-2-((((CIS)-4-phenylcyclohexyl)oxy)methyl)pyrrolidin-3-yl)methanesulfonamide]
9 | 164 | 100.6 | CS(=O)(=O)N[C@H]1CCN(c2ncccc2C#N)[C@H]1CO[C@H]1CC[C@@H](c2ccccc2)CC1 [Example 136, N-((2R,3S)-1-(3-cyanopyridin-2-yl)-2-((((CIS)-4-phenylcyclohexyl)oxy)methyl)pyrrolidin-3-yl)methanesulfonamide]
10 | 2860 | 87.2 | COc1cc(N2CC[C@H](NS(C)(=O)=O)[C@@H]2CO[C@H]2CC[C@@H](c3ccccc3)CC2)ccn1 [Example 59, N-((2R,3S)-1-(2-methoxypyridin-4-yl)-2-((((CIS)-4-phenylcyclohexyl)oxy)methyl)pyrrolidin-3-yl)methanesulfonamide]
11 | 3540 | 90.4 | CS(=O)(=O)N[C@H]1CCN(c2ccnc(CO)c2)[C@H]1CO[C@H]1CC[C@@H](c2ccccc2)CC1 [Example 43, N-((2R,3S)-1-(2-(hydroxymethyl)pyridin-4-yl)-2-((((CIS)-4-phenylcyclohexyl)oxy)methyl)pyrrolidin-3-yl)methanesulfonamide]
12 | 6830 | 77.3 | Cc1nccc(N2CC[C@H](NS(C)(=O)=O)[C@@H]2CO[C@H]2CC[C@@H](c3ccccc3)CC2)n1 [Example 48, N-((2R,3S)-1-(2-methylpyrimidin-4-yl)-2-((((CIS)-4-phenylcyclohexyl)oxy)methyl)pyrrolidin-3-yl)methanesulfonamide]

Second part, the compound before the results:

Row | Compound | EC50 [nM] | % max agonist effect (Emax) [%]
13 | CS(=O)(=O)N[C@H]1CCN(c2cnc3ccoc3c2)[C@H]1CO[C@H]1CC[C@@H](c2ccccc2)CC1 [Example 91, N-((2R,3S)-1-(furo[3,2-b]pyridin-6-yl)-2-((((CIS)-4-phenylcyclohexyl)oxy)methyl)pyrrolidin-3-yl)methanesulfonamide] | 803 | 99.0
14 | CS(=O)(=O)N[C@H]1CCN(c2ccon2)[C@H]1CO[C@H]1CC[C@@H](c2ccccc2)CC1 [Example 17, N-((2R,3S)-1-(isoxazol-3-yl)-2-((((CIS)-4-phenylcyclohexyl)oxy)methyl)pyrrolidin-3-yl)methanesulfonamide] | 102 | 100.4
15 | Cn1ncnc1N1CC[C@H](NS(C)(=O)=O)[C@@H]1CO[C@H]1CC[C@@H](c2ccccc2)CC1 [Example 15, N-((2R,3S)-1-(1-methyl-1H-1,2,4-triazol-5-yl)-2-((((CIS)-4-phenylcyclohexyl)oxy)methyl)pyrrolidin-3-yl)methanesulfonamide] | 33.7 | 101.6
16 | COc1ccc(N2CC[C@H](NS(C)(=O)=O)[C@@H]2CO[C@H]2CC[C@@H](c3ccccc3)CC2)cc1 (relative stereo) [Example 6, N-((CIS)-1-(4-methoxyphenyl)-2-((((CIS)-4-phenylcyclohexyl)oxy)methyl)pyrrolidin-3-yl)methanesulfonamide] | 9220 | 25.1
17 | CS(=O)(=O)N[C@H]1CCN(c2ccc(F)c(C(F)F)c2)[C@H]1CO[C@H]1CC[C@@H](c2ccccc2)CC1 [Example 21, N-((2R,3S)-1-(3-(difluoromethyl)-4-fluorophenyl)-2-((((CIS)-4-phenylcyclohexyl)oxy)methyl)pyrrolidin-3-yl)methanesulfonamide] | 8490 | 57.0
18 | CS(=O)(=O)N[C@H]1CCN(c2cc(O)ncc2F)[C@H]1CO[C@H]1CC[C@@H](c2ccccc2)CC1 [Example 153, N-((2R,3S)-1-(5-fluoro-2-hydroxypyridin-4-yl)-2-((((CIS)-4-phenylcyclohexyl)oxy)methyl)pyrrolidin-3-yl)methanesulfonamide] | 169 | 100.8
19 | CC(C)(O)c1cc(N2CC[C@H](NS(C)(=O)=O)[C@@H]2CO[C@H]2CC[C@@H](c3ccccc3)CC2)ccn1 [Example 44, N-((2R,3S)-1-(2-(2-hydroxypropan-2-yl)pyridin-4-yl)-2-((((CIS)-4-phenylcyclohexyl)oxy)methyl)pyrrolidin-3-yl)methanesulfonamide] | > 10000 | 22.0
20 | CS(=O)(=O)N[C@H]1CCN(c2ccc(C(F)(F)F)nc2)[C@H]1CO[C@H]1CC[C@@H](c2ccccc2)CC1 [Example 34, N-((2R,3S)-2-((((CIS)-4-phenylcyclohexyl)oxy)methyl)-1-(6-(trifluoromethyl)pyridin-3-yl)pyrrolidin-3-yl)methanesulfonamide] | 70 | 99.6
21 | CS(=O)(=O)N[C@H]1CCN(c2cc(C(F)(F)F)ncn2)[C@H]1CO[C@H]1CC[C@@H](c2ccccc2)CC1 [Example 46, N-((2R,3S)-2-((((CIS)-4-phenylcyclohexyl)oxy)methyl)-1-(6-(trifluoromethyl)pyrimidin-4-yl)pyrrolidin-3-yl)methanesulfonamide] | > 10000 | 43.4
22 | Cn1nnnc1N1CC[C@H](NS(C)(=O)=O)[C@@H]1CO[C@H]1CC[C@@H](c2ccccc2)CC1 [Example 31, N-((2R,3S)-1-(1-methyl-1H-tetrazol-5-yl)-2-((((CIS)-4-phenylcyclohexyl)oxy)methyl)pyrrolidin-3-yl)methanesulfonamide] | 2.6 | 101.5
23 | CS(=O)(=O)N[C@H]1CCN(c2cnc3occc3c2)[C@H]1CO[C@H]1CC[C@@H](c2ccccc2)CC1 [Example 92, N-((2R,3S)-1-(furo[2,3-b]pyridin-5-yl)-2-((((CIS)-4-phenylcyclohexyl)oxy)methyl)pyrrolidin-3-yl)methanesulfonamide] | 326 | 100.2
24 | CS(=O)(=O)N[C@H]1CCN(c2cnc3oncc3c2)[C@H]1CO[C@H]1CC[C@@H](c2ccccc2)CC1 [Example 90, N-((2R,3S)-1-(isoxazolo[5,4-b]pyridin-5-yl)-2-((((CIS)-4-phenylcyclohexyl)oxy)methyl)pyrrolidin-3-yl)methanesulfonamide] | 930 | 87.6
25 | CS(=O)(=O)N[C@H]1CCN(c2cc(O)c(F)cn2)[C@H]1CO[C@H]1CC[C@@H](c2ccccc2)CC1 [Example 151, N-((2R,3S)-1-(5-fluoro-4-hydroxypyridin-2-yl)-2-((((CIS)-4-phenylcyclohexyl)oxy)methyl)pyrrolidin-3-yl)methanesulfonamide] | 0.95 | 97.7
